Source: patent US12083124B2 (Incyte Corporation, priority 2019, dated 2024)
Like-named read-outs stand apart in the source and are kept apart here.

Key:
[1] = target: wild-type un-phosphorylated FGFR3 (Homo sapiens, UniProt P22607); assay: FGFR Enzymatic Assay (FRET peptide phosphorylation), FGFR3
[2] = target: wild-type un-phosphorylated FGFR1 (Homo sapiens, UniProt P11362); assay: FGFR Enzymatic Assay (FRET peptide phosphorylation), FGFR1; settings: read-out: FGFR1; wild-type un-phosphorylated FGFR1; pre-incubated for 4 hours
Sequence of wild-type un-phosphorylated FGFR1 (P11362 22-822): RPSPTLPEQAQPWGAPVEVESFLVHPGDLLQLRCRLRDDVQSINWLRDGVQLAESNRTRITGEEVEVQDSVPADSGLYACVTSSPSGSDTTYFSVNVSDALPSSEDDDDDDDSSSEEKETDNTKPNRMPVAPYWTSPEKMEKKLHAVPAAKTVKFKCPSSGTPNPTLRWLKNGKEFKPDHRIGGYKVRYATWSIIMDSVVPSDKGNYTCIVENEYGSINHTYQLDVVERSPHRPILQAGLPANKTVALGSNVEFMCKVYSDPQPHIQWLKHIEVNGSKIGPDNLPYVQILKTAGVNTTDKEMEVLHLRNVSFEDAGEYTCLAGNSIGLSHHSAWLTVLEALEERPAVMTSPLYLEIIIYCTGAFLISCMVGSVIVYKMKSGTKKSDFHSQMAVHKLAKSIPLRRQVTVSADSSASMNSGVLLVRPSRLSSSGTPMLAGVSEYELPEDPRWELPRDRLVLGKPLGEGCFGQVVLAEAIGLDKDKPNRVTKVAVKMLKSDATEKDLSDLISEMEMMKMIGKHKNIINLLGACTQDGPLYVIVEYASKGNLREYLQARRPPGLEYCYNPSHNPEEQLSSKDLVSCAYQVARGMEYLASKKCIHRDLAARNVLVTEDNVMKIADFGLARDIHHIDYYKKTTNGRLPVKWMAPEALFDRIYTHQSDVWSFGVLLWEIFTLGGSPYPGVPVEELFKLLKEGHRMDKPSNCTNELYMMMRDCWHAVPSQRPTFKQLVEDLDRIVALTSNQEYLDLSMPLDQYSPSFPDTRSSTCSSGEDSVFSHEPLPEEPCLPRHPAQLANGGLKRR

[3] = target: wild-type un-phosphorylated FGFR4 (Homo sapiens, UniProt P22455); assay: FGFR Enzymatic Assay (FRET peptide phosphorylation), FGFR4
Sequence of wild-type un-phosphorylated FGFR4 (P22455 22-802): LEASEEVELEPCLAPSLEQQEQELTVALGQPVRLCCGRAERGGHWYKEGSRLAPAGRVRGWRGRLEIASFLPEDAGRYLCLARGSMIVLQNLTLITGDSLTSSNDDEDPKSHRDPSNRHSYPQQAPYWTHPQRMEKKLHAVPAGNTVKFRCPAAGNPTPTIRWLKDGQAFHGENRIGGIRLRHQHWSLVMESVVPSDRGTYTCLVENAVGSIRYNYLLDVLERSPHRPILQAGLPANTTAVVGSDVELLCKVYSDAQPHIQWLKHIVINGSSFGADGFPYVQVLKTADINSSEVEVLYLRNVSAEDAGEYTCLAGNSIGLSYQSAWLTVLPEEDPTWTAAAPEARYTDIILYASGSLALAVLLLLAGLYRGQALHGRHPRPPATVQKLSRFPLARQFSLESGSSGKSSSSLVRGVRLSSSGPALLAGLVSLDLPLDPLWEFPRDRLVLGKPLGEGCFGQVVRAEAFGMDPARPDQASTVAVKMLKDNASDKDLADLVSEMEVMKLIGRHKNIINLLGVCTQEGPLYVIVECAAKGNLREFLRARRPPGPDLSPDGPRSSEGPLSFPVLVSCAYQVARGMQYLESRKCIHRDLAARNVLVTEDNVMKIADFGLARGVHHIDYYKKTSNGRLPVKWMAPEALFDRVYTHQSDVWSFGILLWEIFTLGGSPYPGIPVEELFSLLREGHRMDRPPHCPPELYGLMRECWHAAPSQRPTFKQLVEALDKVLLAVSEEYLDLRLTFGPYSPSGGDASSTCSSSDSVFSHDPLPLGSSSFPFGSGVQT
Method: The inhibitor potency of the exemplified compounds was determined in an enzyme discontinuous assay that measures peptide phosphorylation using FRET measurements to detect product formation. Inhibitors were serially diluted in DMSO and a volume of 0.2 μL was transferred to the wells of a 384-well plate. […] Appropriate controls (enzyme blank and enzyme with no inhibitor) were included on the plate. […] The 10 μL/well reaction concentration of the peptide substrate was 500 nM whereas the ATP concentration was maintained near or below the ATP Km. The ATP Km values were pre-determined in a separate series of experiments. The reaction plate was incubated at 25° C. for 1 hr and the reactions were ended with the addition of 5 μL/well of quench solution (50 mM Tris, 150 mM NaCl, 0.5 mg/mL BSA, pH 7.8; 45 mM EDTA, 600 nM staurosporin, with Perkin Elmer Lance Reagents at 3.75 nM Eu-antibody PY20 and 180 nM APC-Streptavidin). The plate was allowed to equilibrate for ˜10 minutes at ambient temperature before scanning on a PheraStar plate reader (BMG Labtech) instrument.
Either GraphPad prism or XLfit was used to analyze the data. The IC50 values were derived by fitting the data to a four parameter logistic equation producing a sigmoidal dose-response curve with a variable Hill coefficient. Prism equation: Y=Bottom+(Top-Bottom)/(1+10^((Log IC50-X)*Hill slope)); XLfit equation: Y=(A+((B−A)/(1+((X/C)^D)))) where X is the logarithm of inhibitor concentration and Y is the response.
GraphPad prism3 was used to analyze the data. The IC50 values were derived by fitting the data to the equation for a sigmoidal dose-response with a variable slope. Y=Bottom+(Top-Bottom)/(1+10^((Log IC50-X)*Hill Slope)) where X is the logarithm of concentration and Y is the response.
The data in Table 1 was measured in wild-type un-phosphorylated FGFR1, FGFR2, FGFR3, and FGFR4 proteins.

[4] = target: wild-type un-phosphorylated FGFR2 (Homo sapiens, UniProt P21802); assay: FGFR Enzymatic Assay (FRET peptide phosphorylation), FGFR2
Sequence of wild-type un-phosphorylated FGFR2 (P21802 22-821): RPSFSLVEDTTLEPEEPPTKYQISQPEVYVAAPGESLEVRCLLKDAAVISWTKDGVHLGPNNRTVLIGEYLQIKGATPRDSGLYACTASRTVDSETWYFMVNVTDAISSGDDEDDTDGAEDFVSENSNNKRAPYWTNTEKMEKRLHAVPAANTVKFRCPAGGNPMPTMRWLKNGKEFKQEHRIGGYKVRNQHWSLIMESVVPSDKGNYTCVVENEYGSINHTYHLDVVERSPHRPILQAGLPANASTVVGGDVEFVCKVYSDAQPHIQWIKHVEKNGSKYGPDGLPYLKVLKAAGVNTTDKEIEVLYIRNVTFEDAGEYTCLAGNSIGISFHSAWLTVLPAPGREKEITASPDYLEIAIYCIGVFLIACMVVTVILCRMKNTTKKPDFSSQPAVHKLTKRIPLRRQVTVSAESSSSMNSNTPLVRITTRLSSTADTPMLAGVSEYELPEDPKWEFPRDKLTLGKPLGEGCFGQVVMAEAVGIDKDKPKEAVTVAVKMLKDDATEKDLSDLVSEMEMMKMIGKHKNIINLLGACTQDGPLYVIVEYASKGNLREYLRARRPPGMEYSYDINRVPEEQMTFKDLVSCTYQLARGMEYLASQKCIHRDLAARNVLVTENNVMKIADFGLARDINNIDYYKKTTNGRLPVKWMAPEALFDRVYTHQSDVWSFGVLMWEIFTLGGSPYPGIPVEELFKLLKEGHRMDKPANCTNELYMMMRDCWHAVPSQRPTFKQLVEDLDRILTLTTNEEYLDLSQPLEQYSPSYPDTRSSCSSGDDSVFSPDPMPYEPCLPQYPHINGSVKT

[5] = read-out: FGFR4, wild-type un-phosphorylated FGFR4, pre-incubated for 4 hours

Sequence of wild-type un-phosphorylated FGFR3 (P22607 23-806): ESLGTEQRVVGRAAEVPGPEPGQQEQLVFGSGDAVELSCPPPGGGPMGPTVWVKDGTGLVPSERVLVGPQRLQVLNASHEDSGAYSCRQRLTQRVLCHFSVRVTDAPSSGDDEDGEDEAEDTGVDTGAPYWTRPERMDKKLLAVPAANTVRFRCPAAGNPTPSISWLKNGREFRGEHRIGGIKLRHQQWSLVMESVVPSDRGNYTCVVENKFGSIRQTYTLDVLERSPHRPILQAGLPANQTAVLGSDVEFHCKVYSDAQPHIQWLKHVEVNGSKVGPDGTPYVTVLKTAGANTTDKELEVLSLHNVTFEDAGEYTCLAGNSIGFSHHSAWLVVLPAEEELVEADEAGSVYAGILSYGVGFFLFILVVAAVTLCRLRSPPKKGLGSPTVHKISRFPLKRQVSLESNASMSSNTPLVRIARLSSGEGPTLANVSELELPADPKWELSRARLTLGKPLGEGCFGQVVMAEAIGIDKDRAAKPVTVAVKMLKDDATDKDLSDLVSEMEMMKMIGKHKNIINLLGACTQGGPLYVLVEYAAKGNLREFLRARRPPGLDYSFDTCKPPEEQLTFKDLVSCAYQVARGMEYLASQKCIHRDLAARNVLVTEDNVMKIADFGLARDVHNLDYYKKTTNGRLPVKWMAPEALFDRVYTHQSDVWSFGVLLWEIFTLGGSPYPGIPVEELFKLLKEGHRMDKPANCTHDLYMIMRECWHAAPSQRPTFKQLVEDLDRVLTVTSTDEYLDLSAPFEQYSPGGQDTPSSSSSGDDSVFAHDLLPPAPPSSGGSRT

| IC50 [1] [nM] | IC50 [2] [nM] | IC50 [3, 5] [nM] | IC50 [4] [nM] | IC50 [3] [nM] | SMILES |
| --- | --- | --- | --- | --- | --- |
| < 6 | 6 to 40 | 6 to 40 | < 6 |  | COc1cc2[nH]nc(-c3cnn(C4CN(C(=O)[C@@H](C)O)C4)c3)c2nc1-c1cccc2c1CCC2 [Example 123, (R)-1-(3-(4-(5-(2,3-Dihydro-1H-inden-4-yl)-6-methoxy-1H-pyrazolo[4,3-b]pyridin-3-yl)-1H-pyrazol-1-yl)azetidin-1-yl)-2-hydroxypropan-1-one] |
| < 6 | 6 to 40 |  | < 6 | 40 to 100 | COc1cc2[nH]nc(-c3cnn(C4CN(C(=O)[C@H](C)O)C4)c3)c2nc1-c1cccc2c1CCC2 [Example 124, (S)-1-(3-(4-(5-(2,3-Dihydro-1H-inden-4-yl)-6-methoxy-1H-pyrazolo[4,3-b]pyridin-3-yl)-1H-pyrazol-1-yl)azetidin-1-yl)-2-hydroxypropan-1-one] |
| < 6 | 6 to 40 | 6 to 40 | < 6 |  | COc1cc2[nH]nc(-c3cnn(C4CN(C(=O)[C@H]5C[C@H](O)C5)C4)c3)c2nc1-c1cccc2c1CCC2 [Example 125, (3-(4-(5-(2,3-Dihydro-1H-inden-4-yl)-6-methoxy-1H-pyrazolo[4,3-b]pyridin-3-yl)-1H-pyrazol-1-yl)azetidin-1-yl)((trans)-3-hydroxycyclobutyl)methanone] |
| < 6 | 6 to 40 | 6 to 40 | < 6 |  | COc1cc2[nH]nc(-c3cnn(C4CN(C(=O)[C@H]5C[C@@H](O)C5)C4)c3)c2nc1-c1cccc2c1CCC2 [Example 126, (3-(4-(5-(2,3-Dihydro-1H-inden-4-yl)-6-methoxy-1H-pyrazolo[4,3-b]pyridin-3-yl)-1H-pyrazol-1-yl)azetidin-1-yl)((cis)-3-hydroxycyclobutyl)methanone] |
| < 6 | 6 to 40 |  | < 6 | 40 to 100 | COc1cc2[nH]nc(-c3cnn(C4CN(C(=O)[C@H]5COCCN5C)C4)c3)c2nc1-c1cccc2c1CCC2 [Example 127, (R)-(3-(4-(5-(2,3-Dihydro-1H-inden-4-yl)-6-methoxy-1H-pyrazolo[4,3-b]pyridin-3-yl)-1H-pyrazol-1-yl)azetidin-1-yl)(4-methylmorpholin-3-yl)methanone] |
| < 6 | 6 to 40 |  | < 6 | 40 to 100 | COc1cc2[nH]nc(-c3cnn(C4CN(C(=O)[C@@H]5COCCN5C)C4)c3)c2nc1-c1cccc2c1CCC2 [Example 128, (S)-(3-(4-(5-(2,3-Dihydro-1H-inden-4-yl)-6-methoxy-1H-pyrazolo[4,3-b]pyridin-3-yl)-1H-pyrazol-1-yl)azetidin-1-yl)(4-methylmorpholin-3-yl)methanone] |
| < 6 | 6 to 40 | 6 to 40 | < 6 |  | COc1cc2[nH]nc(-c3cnn([C@H]4CCN(C(=O)CO)C4)c3)c2nc1-c1cccc2c1CCC2 [Example 129, (S)-1-(3-(4-(5-(2,3-Dihydro-1H-inden-4-yl)-6-methoxy-1H-pyrazolo[4,3-b]pyridin-3-yl)-1H-pyrazol-1-yl)pyrrolidin-1-yl)-2-hydroxyethan-1-one] |
| < 6 | 6 to 40 | 6 to 40 | < 6 |  | COc1cc2[nH]nc(-c3cnn(C4CN(C(=O)[C@@H]5CCCO5)C4)c3)c2nc1-c1cccc2c1CCC2 [Example 130, (S)-(3-(4-(5-(2,3-Dihydro-1H-inden-4-yl)-6-methoxy-1H-pyrazolo[4,3-b]pyridin-3-yl)-1H-pyrazol-1-yl)azetidin-1-yl)(tetrahydrofuran-2-yl)methanone] |
| < 6 | 6 to 40 | 6 to 40 | < 6 |  | COc1cc2[nH]nc(-c3cnn(C4CN(C(=O)[C@H]5CCOC5)C4)c3)c2nc1-c1cccc2c1CCC2 [Example 131, (S)-(3-(4-(5-(2,3-Dihydro-1H-inden-4-yl)-6-methoxy-1H-pyrazolo[4,3-b]pyridin-3-yl)-1H-pyrazol-1-yl)azetidin-1-yl)(tetrahydrofuran-3-yl)methanone] |
| < 6 | 6 to 40 |  | < 6 | 40 to 100 | COc1cc2[nH]nc(-c3cnn([C@H]4CCN(C(=O)[C@@H](C)O)C4)c3)c2nc1-c1cccc2c1CCC2 [Example 132, (R)-1-((S)-3-(4-(5-(2,3-Dihydro-1H-inden-4-yl)-6-methoxy-1H-pyrazolo[4,3-b]pyridin-3-yl)-1H-pyrazol-1-yl)pyrrolidin-1-yl)-2-hydroxypropan-1-one] |
| < 6 | 6 to 40 |  | < 6 | 40 to 100 | COc1cc2[nH]nc(-c3cnn([C@H]4CCN(C(=O)[C@H](C)O)C4)c3)c2nc1-c1cccc2c1CCC2 [Example 133, (S)-1-((S)-3-(4-(5-(2,3-Dihydro-1H-inden-4-yl)-6-methoxy-1H-pyrazolo[4,3-b]pyridin-3-yl)-1H-pyrazol-1-yl)pyrrolidin-1-yl)-2-hydroxypropan-1-one] |
| < 6 | 6 to 40 |  | < 6 | 40 to 100 | COc1cc2[nH]nc(-c3cnn(C4CN(C(=O)C[C@@H](C)O)C4)c3)c2nc1-c1cccc2c1CCC2 [Example 134, (R)-1-(3-(4-(5-(2,3-Dihydro-1H-inden-4-yl)-6-methoxy-1H-pyrazolo[4,3-b]pyridin-3-yl)-1H-pyrazol-1-yl)azetidin-1-yl)-3-hydroxybutan-1-one] |
| < 6 | 6 to 40 | 6 to 40 | < 6 |  | COc1cc2[nH]nc(-c3cnn(C4CN(C(=O)[C@H]5C[C@](C)(O)C5)C4)c3)c2nc1-c1cccc2c1CCC2 [Example 135, (3-(4-(5-(2,3-Dihydro-1H-inden-4-yl)-6-methoxy-1H-pyrazolo[4,3-b]pyridin-3-yl)-1H-pyrazol-1-yl)azetidin-1-yl)((1r,3r)-3-hydroxy-3-methylcyclobutyl)methanone] |
| < 6 | 6 to 40 | 6 to 40 | < 6 |  | COc1cc2[nH]nc(-c3cnn(C4CN(C(=O)[C@H]5C[C@@](C)(O)C5)C4)c3)c2nc1-c1cccc2c1CCC2 [Example 136, (3-(4-(5-(2,3-Dihydro-1H-inden-4-yl)-6-methoxy-1H-pyrazolo[4,3-b]pyridin-3-yl)-1H-pyrazol-1-yl)azetidin-1-yl)((1s,3s)-3-hydroxy-3-methylcyclobutyl)methanone] |
| < 6 | 6 to 40 |  | < 6 | 40 to 100 | COc1cc2[nH]nc(-c3cnn([C@@H]4CCN(C(=O)[C@@H]5COCCN5C)C4)c3)c2nc1-c1cccc2c1CCC2 [Example 137, ((R)-3-(4-(5-(2,3-Dihydro-1H-inden-4-yl)-6-methoxy-1H-pyrazolo[4,3-b]pyridin-3-yl)-1H-pyrazol-1-yl)pyrrolidin-1-yl)((S)-4-methylmorpholin-3-yl)methanone] |
| < 6 | 6 to 40 |  | < 6 | 40 to 100 | COc1cc2[nH]nc(-c3cnn([C@H]4CCN(C(=O)[C@H]5COCCN5C)C4)c3)c2nc1-c1cccc2c1CCC2 [Example 138, ((S)-3-(4-(5-(2,3-Dihydro-1H-inden-4-yl)-6-methoxy-1H-pyrazolo[4,3-b]pyridin-3-yl)-1H-pyrazol-1-yl)pyrrolidin-1-yl)((R)-4-methylmorpholin-3-yl)methanone] |
| < 6 | 6 to 40 | 6 to 40 | < 6 |  | COc1cc2[nH]nc(-c3cnn(C4CN(C(=O)C5(CO)CCC5)C4)c3)c2nc1-c1cccc2c1CCC2 [Example 139, (3-(4-(5-(2,3-Dihydro-1H-inden-4-yl)-6-methoxy-1H-pyrazolo[4,3-b]pyridin-3-yl)-1H-pyrazol-1-yl)azetidin-1-yl)(1-(hydroxymethyl)cyclobutyl)methanone] |
| < 6 | 6 to 40 |  | < 6 | 40 to 100 | CCN1CC[C@H]1C(=O)N1CC(n2cc(-c3n[nH]c4cc(OC)c(-c5cccc6c5CCC6)nc34)cn2)C1 [Example 140, (S)-(3-(4-(5-(2,3-dihydro-1H-inden-4-yl)-6-methoxy-1H-pyrazolo[4,3-b]pyridin-3-yl)-1H-pyrazol-1-yl)azetidin-1-yl)(1-ethylazetidin-2-yl)methanone] |
| < 6 | 6 to 40 | 6 to 40 | < 6 |  | COc1cc2[nH]nc(-c3cnn(C4CN(C(=O)[C@@H]5CCN5CCF)C4)c3)c2nc1-c1cccc2c1CCC2 [Example 141, (S)-(3-(4-(5-(2,3-Dihydro-1H-inden-4-yl)-6-methoxy-1H-pyrazolo[4,3-b]pyridin-3-yl)-1H-pyrazol-1-yl)azetidin-1-yl)(1-(2-fluoroethyl)azetidin-2-yl)methanone] |
| < 6 | 6 to 40 |  | < 6 | 40 to 100 | COc1cc2[nH]nc(-c3cnn(C4CN(C(=O)[C@@H]5CCN5C(C)C)C4)c3)c2nc1-c1cccc2c1CCC2 [Example 142, (S)-(3-(4-(5-(2,3-Dihydro-1H-inden-4-yl)-6-methoxy-1H-pyrazolo[4,3-b]pyridin-3-yl)-1H-pyrazol-1-yl)azetidin-1-yl)(1-isopropylazetidin-2-yl)methanone] |
| < 6 | 6 to 40 | 6 to 40 | < 6 |  | COc1cc2[nH]nc(-c3cnn([C@H]4CCN(C(=O)[C@@H]5CCN5CCF)C4)c3)c2nc1-c1cccc2c1CCC2 [Example 143, ((S)-3-(4-(5-(2,3-dihydro-1H-inden-4-yl)-6-methoxy-1H-pyrazolo[4,3-b]pyridin-3-yl)-1H-pyrazol-1-yl)pyrrolidin-1-yl)((S)-1-(2-fluoroethyl)azetidin-2-yl)methanone] |
